From US20260055108A1, “TRIAZINE COMPOUNDS AND USES THEREOF” (HUTCHMED LIMITED, priority 2022, published 2026)
pIC50: −log10 of the molar value. Where a name gives a salt, the structure may show the parent alone. Read-outs that look alike come from different tables or passages of the source.

Legend:
[1] = target: Recombinant human Menin protein (2-610) / MLL polypeptide binding (Homo sapiens (Human), UniProt O00255); assay: Menin and MLL protein binding at a molecular level (fluorescence polarization method); conditions: inhibition of Menin / MLL polypeptide binding
Sequence of Recombinant human Menin protein (2-610) / MLL polypeptide binding (O00255 2-610): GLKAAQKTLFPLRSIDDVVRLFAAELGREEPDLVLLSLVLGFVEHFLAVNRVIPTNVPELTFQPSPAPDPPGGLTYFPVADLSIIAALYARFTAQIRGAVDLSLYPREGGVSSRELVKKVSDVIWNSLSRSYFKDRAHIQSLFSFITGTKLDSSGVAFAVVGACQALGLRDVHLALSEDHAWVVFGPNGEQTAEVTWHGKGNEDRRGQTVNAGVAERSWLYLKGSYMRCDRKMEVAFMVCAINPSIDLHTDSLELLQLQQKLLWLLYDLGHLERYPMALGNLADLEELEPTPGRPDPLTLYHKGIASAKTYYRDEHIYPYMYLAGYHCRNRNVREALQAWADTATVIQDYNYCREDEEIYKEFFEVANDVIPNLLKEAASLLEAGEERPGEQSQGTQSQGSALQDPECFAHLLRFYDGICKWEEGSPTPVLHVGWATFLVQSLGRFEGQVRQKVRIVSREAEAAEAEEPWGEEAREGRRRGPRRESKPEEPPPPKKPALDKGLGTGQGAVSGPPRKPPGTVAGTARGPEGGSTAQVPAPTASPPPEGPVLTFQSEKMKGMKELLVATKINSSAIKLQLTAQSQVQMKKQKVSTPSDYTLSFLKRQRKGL
How it was run: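 Binding of recombinant human Menin (2-610) to 6-FAM-labelled MLL peptide measured by fluorescence polarization (ex 480/em 535 nm) in Tris/NaCl/TCEP buffer, pH 7.5, 2% DMSO. Compound preincubated with Menin 30 min at room temperature, then peptide added for 30 min in the dark. Tested at 1.000 down to 0.0005 μM final.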

[2] = system: MV-4-11 cells (human acute myelogenous leukemia cell line carrying MLL-AF4 mutation); assay: Cell proliferation assay, MV-4-11 (CellTiter-Glo); assay type: cell-based; conditions: Homo sapiens, MV4-11, 72 h
How it was run: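 MV-4-11 cells (3000/well, IMDM with 10% HIFBS and 50 μM β-mercaptoethanol) exposed to compound at 1.100–0.001 μM final, 0.1% DMSO, for 3 days at 37°C. Viability read by CellTiter-Glo luminescence on day 0 and day 3, normalised to day-0 and untreated wells.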

[3] = MV-4-11 cells, 3 days treatment, CellTiter-Glo, read-out: GI50

| pIC50 [1] | GI50 [2, 3] | SMILES | GI50 [2] |
| --- | --- | --- | --- |
| 6.85 | 181 nM | CCN(C(=O)c1cc(F)ccc1Oc1nncnc1N1CC2(CCN(CC3CCN(C4COC4)CC3)CC2)C1)C(C)C [Compound 137, N-ethyl-5-fluoro-N-isopropyl-2-((5-(7-((1-(oxetan-3-yl)piperidin-4-yl)methyl)-2,7-diazaspiro[3.5]nonan-2-yl)-1,2,4-triazin-6-yl)oxy)benzamide] |  |
| < 6.00 | 2950 nM | CCN(C(=O)c1cc(F)ccc1Oc1nncnc1N1CCC(C2(N(Cc3ccc4[nH]c(C#N)cc4c3C)C(C)C)CC2)C1)C(C)C (centres unmarked) [Compound 143] |  |
| < 6.00 | > 3300 nM | CCN(C(=O)c1cc(F)ccc1Oc1nncnc1N1CC(C2(N(C)Cc3cc(C(N)=O)n(C)n3)CC2)C1)C(C)C [Compound 145, 3-(((1-(1-(6-(2-(ethyl(isopropyl)carbamoyl)-4-fluorophenoxy)-1,2,4-triazin-5-yl)azetidin-3-yl)cyclopropyl)(methyl)amino)methyl)-1-methyl-1H-pyrazole-5-carboxamide] |  |
| < 6.00 | 986 nM | CCN(C(=O)c1cc(F)ccc1Oc1nncnc1N1CC(C2(N(C)Cc3cc(C#N)n(C)n3)CC2)C1)C(C)C [Compound 146, 2-((5-(3-(1-(((5-cyano-1-methyl-1H-pyrazol-3-yl)methyl)(methyl)amino)cyclopropyl)azetidin-1-yl)-1,2,4-triazin-6-yl)oxy)-N-ethyl-5-fluoro-N-isopropylbenzamide] |  |
| 8.28 | 221 nM | CCN(C(=O)c1cc(F)ccc1Oc1nncnc1N1CC2(CCN(Cc3ccc4c(cc(C#N)n4CC(O)C(N)=O)c3C)CC2)C1)C(C)C (centres unmarked) [Compound 148] |  |
| 9.10 | 2 nM | CCN(C(=O)c1cc(F)ccc1Oc1nncnc1N1CC2(CCN(Cc3ccc4c(cc(C#N)n4CCO)c3C)CC2)C1)C(C)C [Compound 154] |  |
| 7.36 | 48 nM | CCN(C(=O)c1cc(F)ccc1Oc1nnc(NC)nc1N1CC2(CCN(Cc3ccc4c(cc(C#N)n4CCO)c3C)CC2)C1)C(C)C [Compound 156] |  |
| 6.52 | 252 nM | COc1cc(F)ccc1Oc1nncnc1N1CC2(CCN(Cc3ccc4c(cc(C#N)n4CCO)c3C)CC2)C1 [Compound 157] |  |
| 6.67 | 131 nM | CCN(C(=O)c1cc(F)ccc1Oc1nncnc1N1CC2(CCN(Cc3ccc4c(cc(C(N)=O)n4CCO)c3C)CC2)C1)C(C)C [Compound 158] |  |
| 8.31 | 49 nM | CCN(C(=O)c1cc(F)ccc1Oc1nncnc1N1CC(C2(N(CCO)Cc3ccc4[nH]c(C#N)cc4c3C)CC2)C1)C(C)C [Compound 163] |  |
| 8.28 | 13 nM | CCN(C(=O)c1cc(F)ccc1Oc1nncnc1N1CC2(CCN(CC3CCN(c4ccncn4)CC3)CC2)C1)C(C)C [Compound 165, N-ethyl-5-fluoro-N-isopropyl-2-((5-(7-((1-(pyrimidin-4-yl)piperidin-4-yl)methyl)-2,7-diazaspiro[3.5]nonan-2-yl)-1,2,4-triazin-6-yl)oxy)benzamide] |  |
| 7.83 | 18 nM | CCN(C(=O)c1cc(F)ccc1Oc1nncnc1N1CC2(CCN(CC3CCN(c4ccnnc4)CC3)CC2)C1)C(C)C [Compound 167] |  |

The next lines start with the compound.

| SMILES | pIC50 [1] | GI50 [2, 3] | GI50 [2] |
| --- | --- | --- | --- |
| CCN(C(=O)c1cc(F)ccc1Oc1nncnc1N1CC2(CCN(CC3CCN(Cc4c(C)cc(C)[nH]c4=O)CC3)CC2)C1)C(C)C [Compound 138] | 6.99 | 409 nM |  |
| CCN(C(=O)c1cc(F)ccc1Oc1nncnc1N1CC(C2(N(C)Cc3ccc4[nH]c(C#N)cc4c3C)CC2)C1)C(C)C [Compound 139, 2-((5-(3-(1-(((2-cyano-4-methyl-1H-indol-5-yl)methyl)(methyl)amino)cyclopropyl)azetidin-1-yl)-1,2,4-triazin-6-yl)oxy)-N-ethyl-5-fluoro-N-isopropylbenzamide] | 8.21 | 23 nM |  |
| CCN(C(=O)c1cc(F)ccc1Oc1nncnc1N1CC2(CCN(CC3(N(C)CCOC)CC3)CC2)C1)C(C)C [Compound 140] | 7.50 | 37 nM |  |
| CCN(C(=O)c1cc(F)ccc1Oc1nncnc1N1CC(C2(N(Cc3ccc4[nH]c(C#N)cc4c3C)C(C)C)CC2)C1)C(C)C [Compound 141] | 6.81 | 442 nM |  |
| CCN(C(=O)c1cc(F)ccc1Oc1nncnc1N1CCC(C2(N(C)Cc3ccc4[nH]c(C#N)cc4c3C)CC2)C1)C(C)C (centres unmarked) [Compound 142] | 6.91 | 257 nM |  |
| CCN(C(=O)c1cc(F)ccc1Oc1nncnc1N1CC2(CCN(CC3(N(C)C(=O)COC)CC3)CC2)C1)C(C)C [Compound 144, N-ethyl-5-fluoro-N-isopropyl-2-((5-(7-((1-(2-methoxy-N-methylacetamido)cyclopropyl)methyl)-2,7-diazaspiro[3.5]nonan-2-yl)-1,2,4-triazin-6-yl)oxy)benzamide] | 6.21 | 644 nM |  |
| CCN(C(=O)c1cc(F)ccc1Oc1nncnc1N1CC2(CCN(CC3CCN(CC(O)C(N)=O)CC3)CC2)C1)C(C)C (centres unmarked) [Compound 147, 2-((5-(7-((1-(3-amino-2-hydroxy-3-oxopropyl)piperidin-4-yl)methyl)-2,7-diazaspiro[3.5]nonan-2-yl)-1,2,4-triazin-6-yl)oxy)-N-ethyl-5-fluoro-N-isopropylbenzamide] | 6.93 | 1390 nM |  |
| CCN(C(=O)c1cc(F)ccc1Oc1nncnc1N1CC2(CCN(CC3CCN(c4ccc(C(N)=O)cn4)CC3)CC2)C1)C(C)C [Compound 149, 6-(4-((2-(6-(2-(ethyl(isopropyl)carbamoyl)-4-fluorophenoxy)-1,2,4-triazin-5-yl)-2,7-diazaspiro[3.5]nonan-7-yl)methyl)piperidin-1-yl)nicotinamide formate] | 8.54 |  | 6 nM |
| CCN(C(=O)c1cc(F)ccc1Oc1nncnc1N1CC2(CCN(CC3CCN(c4ccncc4C(N)=O)CC3)CC2)C1)C(C)C [Compound 150, 4-(4-((2-(6-(2-(ethyl(isopropyl)carbamoyl)-4-fluorophenoxy)-1,2,4-triazin-5-yl)-2,7-diazaspiro[3.5]nonan-7-yl)methyl)piperidin-1-yl)nicotinamide] | 7.38 | 66 nM |  |
| CCN(C(=O)c1cc(F)ccc1Oc1nncnc1N1CC2(CCN(CC3CCN(c4ccnc(C(N)=O)c4)CC3)CC2)C1)C(C)C [Compound 151] | 8.82 | 3 nM |  |
| CCN(C(=O)c1cc(F)ccc1Oc1nncnc1N1CC2(CCN(Cc3ccc4c(cc(C(=O)NC)n4CCO)c3C)CC2)C1)C(C)C [Compound 152, 5-((2-(6-(2-(ethyl(isopropyl)carbamoyl)-4-fluorophenoxy)-1,2,4-triazin-5-yl)-2,7-diazaspiro[3.5]nonan-7-yl)methyl)-1-(2-hydroxyethyl)-N,4-dimethyl-1H-indole-2-carboxamide] | 6.45 | 369 nM |  |
| CCN(C(=O)c1cc(F)ccc1Oc1nncnc1N1CC(C2(N(C)Cc3ccc4c(cc(C#N)n4CCO)c3C)CC2)C1)C(C)C [Compound 153] | 8.28 | 18 nM |  |
| Cc1c(CN2CCC3(CC2)CN(c2ncnnc2Oc2ccc(F)cc2)C3)ccc2c1cc(C#N)n2CCO [Compound 155] | 6.53 | 276 nM |  |
| CCN(C(=O)c1cc(F)ccc1Oc1nncnc1N1CC2(CCN(Cc3ccc4c(cc(C(=O)O)n4CCO)c3C)CC2)C1)C(C)C [Compound 159] | 6.35 | 642 nM |  |
| CCN(C(=O)c1cc(F)ccc1Oc1nnc(C)nc1N1CC2(CCN(Cc3ccc4c(cc(C#N)n4CCO)c3C)CC2)C1)C(C)C [Compound 160] | 7.06 | 54 nM |  |
| Cc1nc(-c2cc(F)ccc2Oc2nncnc2N2CC3(CCN(Cc4ccc5c(cc(C#N)n5CCO)c4C)CC3)C2)n(C(C)C)n1 [Compound 161] | 7.73 | 22 nM |  |
| CCN(C(=O)c1cc(F)ccc1Oc1nncnc1N1CC2(CCN(Cc3ccc4c(c3)cc(C#N)n4CCO)CC2)C1)C(C)C [Compound 162] | 7.86 | 30 nM |  |
| CCN(C(=O)c1cc(F)ccc1Oc1nncnc1N1CC2(CCN(CC3CCN(c4cccc(N)n4)CC3)CC2)C1)C(C)C [Compound 164, 2-((5-(7-((1-(6-aminopyridin-2-yl)piperidin-4-yl)methyl)-2,7-diazaspiro[3.5]nonan-2-yl)-1,2,4-triazin-6-yl)oxy)-N-ethyl-5-fluoro-N-isopropylbenzamide] | 8.34 | 27 nM |  |
| CCN(C(=O)c1cc(F)ccc1Oc1nncnc1N1CC2(CCN(CC3CCN(c4cccnn4)CC3)CC2)C1)C(C)C [Compound 166] | 8.59 | 7 nM |  |
| CCN(C(=O)c1cc(F)ccc1Oc1nncnc1N1CC2(CCN(CC3CCN(c4cccc(=O)n4C)CC3)CC2)C1)C(C)C [Compound 168] | < 6.70 | 133 nM |  |
| CCN(C(=O)c1cc(F)ccc1Oc1nncnc1N1CC2(CCN(CC3CCN(C(=O)c4cnn5cccnc45)CC3)CC2)C1)C(C)C [Compound 169, N-ethyl-5-fluoro-N-isopropyl-2-((5-(7-((1-(pyrazolo[1,5-a]pyrimidine-3-carbonyl)piperidin-4-yl)methy)-2,7-diazaspiro[3.5]nonan-2-yl)-1,2,4-triazin-6-yl)oxy)benzamide] | 6.78 | 108 nM |  |
| CCN(C(=O)c1cc(F)ccc1Oc1nncnc1N1CC2(CCN(CC3CCN(C(=O)OC)CC3)CC2)C1)C(C)C [Compound 170, methyl 4-((2-(6-(2-(ethyl(isopropyl)carbamoyl)-4-fluorophenoxy)-1,2,4-triazin-5-yl)-2,7-diazaspiro[3.5]nonan-7-yl)methyl)piperidine-1-carboxylate] | 7.46 |  | 49 nM |
